In paper PMC10733197, “Utilization of Rosuvastatin and Endogenous Biomarkers in Evaluating the Impact of Ritlecitinib on BCRP, OATP1B1, and OAT3 Transporter Activity” (Pharmaceutical Research, 2023):

How the values were obtained:
OATP1B3 = target: T1, OATP1B3 (Homo sapiens, UniProt Q9NPD5); assay: OATP1B3-mediated CP-I uptake inhibition in transfected HEK293 cells; format: cell-based
T1 construct: expressed in transfected cells; host or cells: HEK293
T1 sequence (Q9NPD5 1-702): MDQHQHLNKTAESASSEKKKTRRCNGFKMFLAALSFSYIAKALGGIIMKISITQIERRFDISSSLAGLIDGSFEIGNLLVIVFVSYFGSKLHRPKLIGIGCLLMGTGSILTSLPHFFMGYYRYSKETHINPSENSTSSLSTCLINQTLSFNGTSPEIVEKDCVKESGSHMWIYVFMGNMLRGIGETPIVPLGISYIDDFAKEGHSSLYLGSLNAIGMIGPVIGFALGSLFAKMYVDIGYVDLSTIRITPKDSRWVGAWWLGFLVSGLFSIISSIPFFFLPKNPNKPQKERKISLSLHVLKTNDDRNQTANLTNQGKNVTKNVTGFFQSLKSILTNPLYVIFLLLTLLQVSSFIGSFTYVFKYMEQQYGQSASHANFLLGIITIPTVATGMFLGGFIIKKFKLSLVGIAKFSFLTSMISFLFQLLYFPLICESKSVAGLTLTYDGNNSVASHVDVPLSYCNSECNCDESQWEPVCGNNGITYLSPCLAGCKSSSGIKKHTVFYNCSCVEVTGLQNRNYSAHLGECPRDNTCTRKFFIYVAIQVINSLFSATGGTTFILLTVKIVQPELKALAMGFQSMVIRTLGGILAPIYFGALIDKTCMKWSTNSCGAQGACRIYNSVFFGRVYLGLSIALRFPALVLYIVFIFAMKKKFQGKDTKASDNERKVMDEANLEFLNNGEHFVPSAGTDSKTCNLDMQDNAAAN
Procedure: (§1) Sources of human embryonic kidney (HEK) 293 cells expressing individual transfected human solute carriers (SLC), test substrates, and cell culture reagents, as well as detailed cell culture methods, incubations, and sample processing, have been described previously. SLC included hepatic OATP1B1, OATP1B3, and renal OAT1 and OAT3. […] Likewise, the uptake of non-labeled rosuvastatin (Biosynth, San Diego, CA) at 0.3—0.5 µM was determined for OATP1B1 and OATP1B3 at 1—3 min, and CP-I (Frontier Specialty Chemicals, Logan, UT) at 0.1 µM was determined for OATP1B1 and OATP1B3 at 10 min [14].
(§2) In all cases, ritlecitinib (0.018 to 1000 µM) and metabolite M2 (0.018 to 300 µM) was tested over a wide range of final concentrations dissolved in dimethyl sulfoxide (the final concentration of dimethyl sulfoxide in the assays was 1% v/v). For each transporter, the IC50 was estimated using a four-parameter logistic equation (Eq. 1) using GraphPad Prism software (GraphPad Software Inc, La Jolla, CA).1 %UptakeActivity=Bottom+(Top-Bottom)/1+10^(LogIC50-inhib*HillSlope)
(§3) Uptake of CP-I was determined by analysis of the in vitro assay samples using an optimized LC-high resolution mass spectrometry (HRMS) method. In brief, dried samples were reconstituted in 150 µL of 0.1% formic acid and analyzed by LC-HRMS. Analyte separation and detection was achieved using a Shimadzu Nexera high performance LC system (Shimazdu Scientific, MA, USA) coupled to a Sciex API-6600 Q-TOF (time of flight) mass spectrometer with a Turbo IonDrive source (Sciex Corporation, MA, USA). Chromatographic separation was achieved using a Waters Acquity BEH C18 1.7µ 2.1 mm x 100 mm column and a binary mobile phase system consisting of 0.1% v/v formic acid and 0.1% v/v formic acid in acetonitrile, as mobile phase A and B, respectively. The column temperature was held at 60 °C and the flow rate was 0.55 mL/minute. The gradient program had initial conditions of 5% B which was held for 0.9 min, followed by a linear ramp to 95% B over 5.1 min, a hold for 1.0 min, and a return to starting conditions over 0.1 min with re-equilibration for 0.9 min (total run time of 8.0 min). Analyte detection was achieved using an API-6600 Q T-OF mass spectrometer with electrospray ionization (ESI). The mass spectrometer was operated in both TOF-MS and TOF-MS/MS mode with data collected over a 60 to 670 dalton mass range. TOF-MS/MS data were collected in the high-resolution mode. Quantification of CP-I levels was assessed using targeted TOF-MS/MS data with accumulation times of 150 and 35 ms, respectively, for CP-I and the internal standard (ISTD) verapamil. Data were processed using the MultiQuant software package using the targeted mass-to-charge transitions of 328.1 to 268.1201 ± 0.02 daltons and 238.1094 ± 0.02 daltons (summed ions) for CP-I, and 455.2 to 165.0907 ± 0.02 daltons for the ISTD (verapamil), to generate analyte/ISTD area ratios.

OATP1B1 = target: T2, OATP1B1 (Homo sapiens, UniProt Q9Y6L6); assay: OATP1B1-mediated CP-I uptake inhibition in transfected HEK293 cells; format: cell-based
T2 construct: expressed in transfected cells; host or cells: HEK293
T2 sequence (Q9Y6L6 1-691): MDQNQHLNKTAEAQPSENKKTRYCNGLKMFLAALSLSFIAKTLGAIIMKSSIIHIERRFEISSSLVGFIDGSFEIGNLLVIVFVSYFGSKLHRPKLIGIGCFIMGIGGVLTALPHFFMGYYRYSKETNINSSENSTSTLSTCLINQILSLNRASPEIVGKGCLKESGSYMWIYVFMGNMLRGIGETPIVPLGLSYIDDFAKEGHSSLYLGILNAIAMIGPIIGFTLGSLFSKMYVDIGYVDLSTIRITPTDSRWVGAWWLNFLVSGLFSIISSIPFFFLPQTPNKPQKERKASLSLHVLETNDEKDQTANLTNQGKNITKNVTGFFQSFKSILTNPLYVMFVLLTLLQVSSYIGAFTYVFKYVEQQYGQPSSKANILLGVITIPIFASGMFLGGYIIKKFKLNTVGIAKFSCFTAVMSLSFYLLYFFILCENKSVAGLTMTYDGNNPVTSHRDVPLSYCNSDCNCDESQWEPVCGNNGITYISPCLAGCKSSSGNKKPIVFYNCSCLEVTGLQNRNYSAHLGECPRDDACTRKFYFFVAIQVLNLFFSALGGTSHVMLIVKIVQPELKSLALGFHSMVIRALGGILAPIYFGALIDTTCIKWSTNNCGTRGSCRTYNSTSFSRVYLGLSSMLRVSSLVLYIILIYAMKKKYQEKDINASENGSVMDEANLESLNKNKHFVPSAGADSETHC
Procedure: as §1, §2
as §3, with “Data were processed using the MultiQuant software package using the targeted mass-to-charge transitions of 328.1 to 268.1201 ± 0.02 daltons and 238.1094 ± 0.02 daltons (summed ions) for CP-I, and 455.2 to 165.0907 ± 0.02 daltons for the ISTD (verapamil), to generate analyte/ISTD area ratios.” left out

- Triggers Drug Interaction Cutoff (OATP1B3; OATP1B3 (CP-I)): No
- R-value (OATP1B3; OATP1B3 (CP-I), 1 + (Imax,inlet,u/IC50), cutoff 1.1 (FDA), 1.04 (EMA)): < 1.03
- Fraction Inhibited (OATP1B3; OATP1B3 (CP-I), Imax,inlet,u/(Imax,inlet,u + IC50) (Eq. 1)): < 0.03
- IC50 (OATP1B3; hepatic OATP1B3, CP-I 0.1 µM as substrate, 10 min, HEK293): > 1000 µM
- inhibition at 10 min, 1000 µM (OATP1B3; human, HEK293 cells transfected with OATP1B3, probe coproporphyrin I (CP-I), 0.1 µM, OATP1B3 (CP-I), 1000 µM, read-out: % inhibition at the highest concentration tested): 23%
- Triggers Drug Interaction Cutoff (OATP1B1; OATP1B1 (CP-I)): Yes
- R-value (OATP1B1; OATP1B1 (CP-I), 1 + (Imax,inlet,u/IC50), cutoff 1.1 (FDA), 1.04 (EMA)): 1.12
- Fraction Inhibited (OATP1B1; OATP1B1 (CP-I), Imax,inlet,u/(Imax,inlet,u + IC50) (Eq. 1)): 0.1
- IC50 (OATP1B1; hepatic OATP1B1, CP-I 0.1 µM as substrate, 10 min, HEK293, mean ± SD, n = 3): 257 ± 8 µM
SMILES: C=CC(=O)N1C[C@H](Nc2ncnc3[nH]ccc23)CC[C@@H]1C [Ritlecitinib, ritlecitinib]
